Experimental findings from PubChem BioAssay (NCI) are described below.

Test systems include A498 renal; A549 NSCLC; HCT-15 colon; NCI-H226 lung; OVCAR-3 ovarian; OVCAR-4 ovarian; SF-268 CNS; SN12C renal; SW-620 colon; KM12 colon.
Common to all, as to assay: inhibition of tumour cell growth, NCI panel, 48 h

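In this assay, cells in 96-well plates receive the compound at five concentrations for 48 hours. Endpoints are linearly interpolated between the surrounding concentrations. The concentration for 50% growth inhibition is given as GI50. TGI is the concentration that stops growth completely.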 A value given as a limit tells only on which side of the number the result lay.

With `CC1CN(C(=O)CN2CCC(CCCCN(C)C)CC2)c2ccccc2NC1=O` (stereo not drawn), the TGI with A498 renal, in the assay with A549 NSCLC, in the assay on HCT-15 colon, with NCI-H226 lung, with OVCAR-3 ovarian and in the assay with OVCAR-4 ovarian was over 100 µM throughout. The TGI with SF-268 CNS, in the assay with SN12C renal and in the assay on SW-620 colon was over 100 µM throughout.
For `COc1cc(-n2cc(-c3ccc(F)cc3)[nH]c2=O)cc(OC)c1OC`, the GI50 in the assay on A549 NSCLC, with HCT-15 colon, with KM12 colon, in the assay on NCI-H226 lung, in the assay on OVCAR-3 ovarian and with OVCAR-4 ovarian was over 100 µM in each case. For the same compound, the GI50 in the assay on SF-268 CNS, in the assay with SN12C renal and in the assay on SW-620 colon was over 100 µM each time. For the same compound, the TGI in the assay on A549 NSCLC, in the assay on HCT-15 colon, in the assay with KM12 colon, with NCI-H226 lung, with OVCAR-3 ovarian and in the assay with OVCAR-4 ovarian was over 100 µM throughout. The TGI in the assay with SF-268 CNS, in the assay on SN12C renal and with SW-620 colon was over 100 µM each time.
For `Cc1ccccc1N1C(=O)C2C=CC(n3[nH]c(=O)n(Cc4ccccc4)c3=O)CC2C1=O` (stereo not drawn), the TGI in the assay with A498 renal, in the assay with A549 NSCLC, in the assay on HCT-15 colon, in the assay with KM12 colon, in the assay with NCI-H226 lung and in the assay on OVCAR-3 ovarian was over 100 µM in each case. The TGI with SF-268 CNS, in the assay on SN12C renal and in the assay with SW-620 colon was over 100 µM each time.
Consider `CCCC(=O)Nc1cc2c3c(c1)CCCN3CCC2`, for which the TGI with A549 NSCLC, with HCT-15 colon, in the assay on KM12 colon, with OVCAR-3 ovarian, in the assay with OVCAR-4 ovarian and with SF-268 CNS was over 10 µM in each case. The TGI with SN12C renal and in the assay with SW-620 colon was over 10 µM throughout.
Turning to `CCN1CCC(O)(c2ccc(OC)cc2)C(C(=O)c2ccc(OC)cc2)C1` (stereo not drawn), the TGI in the assay on A549 NSCLC is 37 µM; in the assay on HCT-15 colon it was 43.1 µM; with KM12 colon, 42.1 µM; with NCI-H226 lung, over 100 µM; in the assay with OVCAR-3 ovarian it was 31.6 µM; in the assay with OVCAR-4 ovarian, 32.4 µM. Also, the TGI in the assay on SF-268 CNS is 41.8 µM; in the assay with SN12C renal, 42.5 µM; in the assay with SW-620 colon, 25.9 µM.
With `Cc1cc(Cl)ccc1NC(=O)C(=O)Cc1nc2ccccc2o1`, the TGI in the assay on A498 renal, with A549 NSCLC, in the assay with HCT-15 colon, with KM12 colon, in the assay with OVCAR-3 ovarian and in the assay on OVCAR-4 ovarian was over 100 µM each time. Further, the TGI in the assay with SF-268 CNS, in the assay with SN12C renal and with SW-620 colon was over 100 µM each time.
Take `CC(=O)Oc1c2c(c(O)c3ccccc13)C(n1cnc3c(ncn3C3OC(CO)C4OC(C)(C)OC43)c1=N)CCC2` (stereo not drawn): the TGI in the assay on A498 renal was 33.3 µM; in the assay with A549 NSCLC it was 35.4 µM; in the assay with HCT-15 colon it was 29.3 µM; in the assay with KM12 colon, 29 µM; in the assay on NCI-H226 lung, 52.8 µM; in the assay with OVCAR-3 ovarian it was 27.8 µM. Besides, the TGI turned out to be 30.7 µM in the assay with SF-268 CNS, 37.9 µM with SN12C renal and 29.6 µM in the assay on SW-620 colon.
Turning to `CCOC(=O)C(=[N+]=[N-])[Si](C)(C)C`, the TGI in the assay on A498 renal, in the assay on A549 NSCLC, in the assay with HCT-15 colon, with KM12 colon, with OVCAR-3 ovarian and with OVCAR-4 ovarian was over 100 µM throughout. Besides, the values for the TGI in the assay on SF-268 CNS, in the assay with SN12C renal and in the assay on SW-620 colon were 59.7 µM, over 100 µM and over 100 µM, respectively.
Turning to `Cc1ccc(/C=C/C(=O)c2sc(-c3nc(C)c(C(=O)/C=C/c4ccc(C)cc4)s3)nc2C)cc1`, the TGI with A498 renal, in the assay on A549 NSCLC, in the assay with HCT-15 colon, in the assay on KM12 colon, with NCI-H226 lung and in the assay on OVCAR-3 ovarian was over 100 µM each time. In addition, the TGI in the assay with SF-268 CNS, in the assay on SN12C renal and in the assay with SW-620 colon was over 100 µM in each case.
For the compound `C1=CC(N(c2ccccc2)C2C=CCCC2)CCC1` (stereo not drawn), the TGI in the assay with A498 renal, with A549 NSCLC, in the assay on HCT-15 colon, in the assay with SF-268 CNS, in the assay on SN12C renal and with SW-620 colon was over 100 µM throughout.
Consider `[Cl][Hg][c]1cc[c]([Hg][Cl])o1`, for which the GI50 was 20 µM in the assay with A498 renal; 21.9 µM in the assay on A549 NSCLC; 2.05 µM with HCT-15 colon; 10.6 µM in the assay with KM12 colon; 21.8 µM in the assay with NCI-H226 lung; 1.63 µM in the assay on OVCAR-4 ovarian. The GI50 in the assay with SF-268 CNS was 2.77 µM; with SN12C renal, 2.25 µM; in the assay with SW-620 colon, 1.32 µM. Further, the TGI stood at 34.2 µM with A498 renal; 53.5 µM in the assay on A549 NSCLC; 6.06 µM in the assay with HCT-15 colon; 24.4 µM with KM12 colon; 51.8 µM in the assay on NCI-H226 lung; 4.24 µM in the assay on OVCAR-4 ovarian. Also, the TGI amounted to 12.3 µM with SF-268 CNS, 12.9 µM in the assay on SN12C renal and 3.23 µM in the assay on SW-620 colon.
With `CN=C1CC2c3cc(OC)c(OC)cc3CCN2C2=C1C(=O)CC(C)(C)C2` (stereo not drawn), the TGI in the assay with A498 renal, in the assay with A549 NSCLC, with KM12 colon, with NCI-H226 lung, in the assay with OVCAR-3 ovarian and in the assay with SF-268 CNS was over 100 µM in each case. For the same compound, the TGI in the assay on SN12C renal and in the assay with SW-620 colon was over 100 µM throughout.
In the case of `Oc1cccnc1[Se]`, the TGI with A549 NSCLC, with HCT-15 colon, in the assay on KM12 colon, in the assay with NCI-H226 lung, in the assay on OVCAR-3 ovarian and in the assay on SF-268 CNS was over 100 µM in each case. The TGI in the assay on SN12C renal and with SW-620 colon was over 100 µM in each case.
On to `Cc1ccc(NC(=O)CCc2cc(C(C)(C)C)nc(=S)[nH]2)cc1C`, for which the TGI in the assay with A498 renal, with A549 NSCLC, with HCT-15 colon, with KM12 colon, with NCI-H226 lung and in the assay with OVCAR-3 ovarian was over 100 µM in each case. The TGI in the assay with SF-268 CNS, in the assay on SN12C renal and in the assay with SW-620 colon was over 100 µM in each case.
